This experiment addresses human RIP1 kinase domain (2-375) (Homo sapiens (Human), UniProt Q13546). Put plainly: biochemical. Format: biochemical. As to conditions: tight-binding apparent inhibition constant; human RIP1 kinase domain (2-375) 50 nM, 50 uM ATP, 2 hours; read-out: Ki. In short, it runs like this: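 50 nM purified kinase domain from baculovirus-infected insect cells, incubated 2 h with compound in 50 mM Hepes pH 7.5, 30 mM MgCl2, 1 mM DTT, 50 uM ATP, 0.002% Brij-35, 0.5% DMSO. ADP formation read by Transcreener FP at 633 nm excitation. Ki^app fitted with the Morrison tight-binding equation.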

Sequence of human RIP1 kinase domain (2-375) (Q13546 2-375): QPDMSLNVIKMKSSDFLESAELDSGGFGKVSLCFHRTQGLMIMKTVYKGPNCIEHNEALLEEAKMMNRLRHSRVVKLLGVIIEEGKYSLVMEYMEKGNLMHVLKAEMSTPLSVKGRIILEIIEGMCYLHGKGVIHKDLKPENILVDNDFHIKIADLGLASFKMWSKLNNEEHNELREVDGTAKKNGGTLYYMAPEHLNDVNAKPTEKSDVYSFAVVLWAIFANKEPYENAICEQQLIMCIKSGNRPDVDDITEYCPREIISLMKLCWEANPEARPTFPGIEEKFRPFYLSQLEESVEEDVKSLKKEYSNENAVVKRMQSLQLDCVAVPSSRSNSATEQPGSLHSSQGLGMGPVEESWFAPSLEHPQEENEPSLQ

Turning to `Cc1cc(F)c2c(c1)OC[C@H](NC(=O)c1nc3n(n1)[C@H](C(F)(F)F)CCC3)C(=O)N2` (single isomer, unassigned) [Example 428], the Ki came to 8.14 nM.
As for `O=C(N[C@H]1CCc2cc(F)cc(F)c2NC1=O)c1nc2n(n1)[C@@H](C(F)(F)F)CCC2` (single isomer, unassigned) [Example 429], the Ki turned out to be 213 nM.
For `O=C(N[C@H]1CCc2cc(F)cc(F)c2NC1=O)c1nc2n(n1)[C@H](C(F)(F)F)CCC2` (single isomer, unassigned) [Example 430] the value was 21 nM; for `O=C(N[C@H]1COc2cc(F)cc(F)c2NC1=O)c1nc2n(n1)[C@@H](C(F)(F)F)CCC2` (single isomer, unassigned) [Example 431], 434 nM.
For `O=C(N[C@H]1COc2cc(F)cc(F)c2NC1=O)c1nc2n(n1)[C@H](C(F)(F)F)CCC2` (single isomer, unassigned) [Example 432] the value was 12.7 nM; for `CC(C)[C@H]1CCCc2nc(C(=O)N[C@H]3CCc4cc(F)cc(F)c4NC3=O)nn21` (single isomer, unassigned) [Example 434], 174 nM.
For `CCC[C@H]1CCCc2nc(C(=O)N[C@H]3CCc4cc(F)cc(F)c4NC3=O)nn21` (single isomer, unassigned) [Example 435] the value was 25.2 nM; for `CC(C)[C@@H]1CCCc2nc(C(=O)N[C@H]3CCc4cc(F)cc(F)c4NC3=O)nn21` (single isomer, unassigned) [Example 436], 20.3 nM.
Regarding `CCC[C@@H]1CCCc2nc(C(=O)N[C@H]3CCc4cc(F)cc(F)c4NC3=O)nn21` (single isomer, unassigned) [Example 437], the Ki is 8.43 nM.
As for `Cc1cc(F)c2c(c1)OC[C@H](NC(=O)c1nc3n(n1)[C@@H](C(C)C)CCC3)C(=O)N2` (single isomer, unassigned) [Example 438], the Ki stood at 150 nM.
For `CCC[C@H]1CCCc2nc(C(=O)N[C@H]3COc4cc(C)cc(F)c4NC3=O)nn21` (single isomer, unassigned) [Example 439], the Ki was 6.62 nM.
As for `Cc1cc(F)c2c(c1)OC[C@H](NC(=O)c1nc3n(n1)[C@H](C(C)C)CCC3)C(=O)N2` (single isomer, unassigned) [Example 440], the Ki was determined as 3.46 nM.
In the case of `CCC[C@@H]1CCCc2nc(C(=O)N[C@H]3COc4cc(C)cc(F)c4NC3=O)nn21` (single isomer, unassigned) [Example 441] it was 9.29 nM; in that of `CC(C)[C@@H]1CCCc2nc(C(=O)N[C@H]3COc4cc(F)cc(F)c4NC3=O)nn21` (single isomer, unassigned) [Example 444], 4.67 nM.
Take `CCC[C@@H]1CCCc2nc(C(=O)N[C@H]3COc4cc(F)cc(F)c4NC3=O)nn21` (single isomer, unassigned) [Example 445]: the Ki was found to be 3.47 nM.
Consider `CCC[C@H]1CCCc2nc(C(=O)N[C@H]3COc4cc(F)cc(F)c4NC3=O)nn21` (single isomer, unassigned) [Example 446], for which the Ki is 7.06 nM.
For `CC(C)[C@H]1CCCc2nc(C(=O)N[C@H]3COc4cc(F)cc(F)c4NC3=O)nn21` (single isomer, unassigned) [Example 447], the Ki came to 207 nM.
In the case of `CN1C(=O)C(NC(=O)c2ncn(Cc3ccccc3)n2)CCn2nc(CN3CCC(F)(F)C3)cc21` (single isomer, unassigned) [Example 448, 1-benzyl-N-(2-((3,3-difluoropyrrolidin-1-yl)methyl)-4-methyl-5-oxo-5,6,7,8-tetrahydro-4H-pyrazolo[1,5-a][1,3]diazepin-6-yl)-1H-1,2,4-triazole-3-carboxamide], the Ki was 214 nM.
As for `CN1C(=O)[C@@H](NC(=O)c2ncn(Cc3ccccc3)n2)CCn2nc(CN3CCOCC3)cc21` (single isomer, unassigned) [Example 449], the Ki came to 115 nM.

(Values after patent US10988459B2 (priority 2015, dated 2021).)
